Experimental data taken from publication PMC6874530, “Structural analysis identifies an escape route from the adverse lipogenic effects of liver X receptor ligands” (Communications Biology, 2019).
Where “and” joins values, the source holds several entries; their conditions need not be identical. Equal entries are not always repeated. Where two headings read alike, the source gives them in different places.

Key:
LXRβ LBD = target: T1, LXRβ LBD (Homo sapiens, UniProt P55055); experiment: biochemical
T1 sequence (P55055 215-460 limits assumed): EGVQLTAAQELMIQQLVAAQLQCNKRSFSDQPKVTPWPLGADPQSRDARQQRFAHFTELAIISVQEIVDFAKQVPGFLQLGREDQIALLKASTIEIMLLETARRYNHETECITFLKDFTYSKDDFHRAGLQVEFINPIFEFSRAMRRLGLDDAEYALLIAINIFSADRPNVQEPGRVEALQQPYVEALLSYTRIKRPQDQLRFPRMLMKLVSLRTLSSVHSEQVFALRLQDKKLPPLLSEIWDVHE
Description: The compounds were run in triplicate (binding assay) or in quadruplicate (transactivation assay). Standard deviations are indicated for individual experiments run more than once.

LXRα = target: T2, LXRα (Homo sapiens, UniProt Q13133); experiment: Gal4 one hybrid reporter gene (transactivation) assay in U2OS cells, LXRα; type: cell-based; details: for EC50: U2OS cells, Gal4-LXRα LBD, read-out: LXRα transactivation pEC50 (converted); for Emax: U2OS, 40 h, read-out: LXRα transactivation Agonist efficacy, %
T2 construct: expression vectors pSG5-Gal4-LXRα LBD or pSG5-Gal4-LXRβ LBD; expressed in transfected cells; host or cells: U2OS osteosarcoma cells
T2 sequence (Q13133 209-447 limits assumed): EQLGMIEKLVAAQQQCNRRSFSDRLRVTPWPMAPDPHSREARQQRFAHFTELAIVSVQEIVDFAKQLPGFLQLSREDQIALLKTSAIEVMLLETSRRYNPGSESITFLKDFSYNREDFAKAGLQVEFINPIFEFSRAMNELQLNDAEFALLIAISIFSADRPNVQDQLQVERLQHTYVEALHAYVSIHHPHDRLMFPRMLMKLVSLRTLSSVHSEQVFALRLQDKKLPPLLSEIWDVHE
Description: Transactivation assays were performed in U2OS osteosarcoma cells (ATCC, USA). […] Ligands were added at ten different concentrations 2 h post transfection and the luciferase activity was measured after 40 h.

Abca1 mRNA in intestine = experiment: intestinal Abca1 mRNA induction in C57BL/6 mice (Emax model); type: in vivo, mouse; details: for ED50: Mus musculus
Description: All procedures involving animals were conducted in accordance with accepted standards of good animal practice and approved by the respective local animal ethics committees (Gothenburg region Local Ethics Review Committee on Animal experiments and University of Virginia Animal Care and Use Committee). Male C57BL/6JOlaHsd mice were retrieved from Harlan Laboratories (Horst, The Netherlands) around 7 weeks of age. In the studies with BMS-852907, male 8-week C57BL/6J mice (Jackson Laboratories) were used. Mice were given ad libitum access to water and standard rodent chow during the studies.
Solid compounds were solubilized in PEG400/Ethanol/Solutol/Water solution (36.3/9.1/4.6/50%). Compounds were given daily by oral gavage, 5 ml kg^−1, at doses ranging from 0.1 to 100 μmol kg^−1 of body weight for 4 days. Animals were terminated 3 h after the last dose.
(§1) At termination, the whole-blood volume was drawn from isoflurane-anesthetized mice via an incision in the carotid artery into EDTA blood tubes (S-Monovette®, EDTA KE/1.3 mL, Sarstedt, Nümbrecht, Germany or BD Microtainers®, Benton, Dickinson and Company, Franklin Lakes, New Jersey, USA). Blood samples were placed on ice and centrifuged within an hour (15 min, 2500 × g, 4 °C or 5 min, 16000 × g, 4 °C). The plasma was then dispensed in separate tubes and kept at −80 °C for later analysis of compound concentration and TG levels. For the analysis of intestinal Abca1 transcript levels, a 3–5-mm long segment of the duodenum was excised and cleared from any gut contents. Tissues were instantly snap frozen in liquid nitrogen and stored at −80 °C.
Snap-frozen intestinal tissues were quickly disrupted in QIAzol® (Qiagen, Hilden, Germany) or PureZOL™ (Bio-Rad Laboratories, Hercules, California, USA) by using a bead tissue homogenizer. Lysates were mixed with chloroform and centrifuged at 6000 × g for 15 min at 4 °C. Total RNA was purified from the upper aqueous phase on the ABI PRISM™ 6100 Nucleic Acid PrepStation (Applied Biosystems, Foster City, USA) or by using the RNeasy kit® (QIAGEN Sciences Inc., Germantown, Maryland, USA) including on-column DNase treatment by using the respective manufacturer’s protocol and reagents. Concentration of total RNA was determined on a NanoDrop™ ND-100 Spectrophotometer (Saveen Werner, Lögstrup, Sweden). The RNA templates were transferred to cDNA by reverse transcription by using the High-Capacity cDNA Reverse Transcription Kit (Applied Biosystems, Foster City, USA) according to the manufacturer’s protocol. Mouse ATP-binding cassette subfamily A member 1 (Abca1) was analyzed by using the forward primer 5′-[…]-3′, reverse primer 5′-[…]-3′, and the dual-labeled probe 5′-6FAM-[…]-TAMRA-3′. Mouse ribosomal protein large P0 (Rplp0, 36b4) was analyzed by using the forward primer 5′-[…]-3′, reverse primer 5′-[…]-3′, and the FAM-labeled probe 5′-[…]-TAMRA-3′. In the study with BMS-852907, RT-qPCR reactions were carried out in separate triplicate wells for Abca1 and Rplp0, respectively, by using 20 ng of cDNA template, 385 nM of the above-mentioned primers, and iQ™ SYBR Green Supermix (Bio-Rad, Hercules, California, USA) on a Bio-Rad MyiQ instrument (Bio-Rad, Hercules, California, USA). In the other studies, 400 nM Abca1 forward and reverse primers, 200 nM Abca1 probe, 200 nM Rplp0 forward and reverse primers, and 100 nM Rplp0 probe were mixed with 15 ng of cDNA template and TaqMan™ Gene Expression Master Mix (Applied Biosystems, Foster City, USA). The RT-qPCR reactions were performed on a 7500 Real-time PCR system (Applied Biosystems, Foster City, USA). Cycle threshold values (Ct) were retrieved from the instrument software. Relative changes in mRNA expression were calculated by using the comparative cycle method (2^−ΔΔCt). […]

plasma triglycerides = experiment: plasma TG induction in C57BL/6 mice vs plasma compound concentration (log-linear model); type: in vivo, mouse; details: for TG induction in plasma m (scaling factor) / TG induction in plasma C2, drug concentration corresponding to a twofold increase in TG levels: (% RSE); for TG induction in plasma Attributed class: mouse, in vivo
Description: Male C57BL/6JOlaHsd mice were retrieved from Harlan Laboratories (Horst, The Netherlands) around 7 weeks of age. […] Mice were given ad libitum access to water and standard rodent chow during the studies.
Compounds were given daily by oral gavage, 5 ml kg^−1, at doses ranging from 0.1 to 100 μmol kg^−1 of body weight for 4 days. Animals were terminated 3 h after the last dose.
as §1
Plasma triglyceride levels were analyzed by using the Triglycerides/Glycerol Blanked reagent kit (Roche Diagnostics GMBH, Mannheim, Germany). Samples were measured on an ABX Pentra 400 instrument (Horiba Medical, Irvine, California, USA) or Cobas Mira plus instrument (Roche Diagnostics Corporation, Indianapolis, USA). […] Absorbance was measured by using a Tecan Infinite M200 plate reader (Tecan Austria GmbH, Salzburg, Austria).
About 25 µL of plasma was precipitated with 150 µL of cold acetonitrile containing 0.2% formic acid. […] Sample analysis was performed by using a reversed-phase high-pressure liquid chromatography system coupled to a Quattro Ultima triple-quadrupole mass spectrometer (Waters, UK). A rapid 2-min 4–90% (vol/vol) acetonitrile (containing 0.2% formic acid) gradient was used for chromatographic separation.
To rank the compounds, the drug concentration (C2) needed to generate a twofold increase in plasma TG was estimated by rearranging Eq. (2):3 C2=exp^2fold−BL−1/m^1/γ

[1] = Receptor-binding affinity pKi LXRβ, value (SD, n independent experiments)
[2] = maximal activation compared with a reference full agonist, value (SD, n)
[3] = po, read-out: Abca1 mRNA induction in intestine Attributed class
[4] = oral gavage daily for 4 days, C57BL/6 mice, (% RSE), read-out: Abca1 mRNA induction in intestine ED50
[5] = binding affinity to the LXRβ LBD

| Compound | Ki (LXRβ LBD; [1]) [nM] | EC50 (LXRα; value (SD, n)) [nM] | Emax (LXRα; [2]) [%] | ED50 (Abca1 mRNA in intestine; [3]) [µmol/kg] | ED50 (Abca1 mRNA in intestine; [4]) [µmol/kg] | TG induction in plasma m (scaling factor) (plasma triglycerides) | TG induction in plasma C2, drug concentration corresponding to a twofold increase in TG levels (plasma triglycerides) | Ki (LXRβ LBD; [5]) [nM] | class of intestinal Abca1 induction (Abca1 mRNA in intestine) | TG induction in plasma Attributed class (plasma triglycerides) | TG class (plasma triglycerides) | agonist activity in the Gal4 reporter gene assay, LXRα (LXRα) | LXRα transactivation Agonist efficacy, % (LXRα; [2]) | Ki (LXRβ LBD) [nM] | trend in plasma TG levels (plasma triglycerides; within the explored concentration range) |
| --- | --- | --- | --- | --- | --- | --- | --- | --- | --- | --- | --- | --- | --- | --- | --- |
| CC(CCCc1cccc(S(N)(=O)=O)n1)NC1=C(c2ccccc2)S(=O)(=O)N(C(C)C)C1=O (centres unmarked) [AZ2] | 3.72 | 77.6 | 111 | ≤ 11.3 | 9.64 | 9.28 (63) | 0.041 (120) μM |  |  |  |  |  |  |  |  |
| CN(C)C(=O)c1cccc(CCCCNC2=C(c3ccccc3)S(=O)(=O)N(C(C)(C)C)C2=O)c1 [AZ1] | 2.51 | 110 | 102 | ≤ 11.3 | < 30 | 3.88 (30) | 0.214 (58) μM | 2 | high ABCA1 | Lipogenic |  |  |  |  |  |
| CC(C)(C)N1C(=O)C(Cc2ccccc2)=C(NC2CCN(c3ncc(CC(=O)O)cc3Cl)CC2)C1=O [AZ7] | 105 | 1100 | 85.3 | ≤ 11.3 | < 30 |  |  |  | high ABCA1 | Non-lipogenic |  |  |  |  |  |
| O=C(O)Cc1cccc(OCCCN(Cc2cccc(C(F)(F)F)c2Cl)CC(c2ccccc2)c2ccccc2)c1 [GW3965, reference compound] | 24 | 1100 | 93.5 | ≤ 11.3 | 0.969 | 0.244 (18) | 40.2 μM and 40.2 (33) μM |  |  | Non-lipogenic | non-lipogenic |  |  |  |  |
| CC(C)(O)c1cn(-c2ccc(-c3cc(F)c(CO)c(S(C)(=O)=O)c3)cc2F)c(C(C)(C)c2c(Cl)cccc2Cl)n1 [BMS-852927] | 2.63 |  |  | ≤ 11.3 | 2.1 | 0.066 (18) | 477 μM and 477 (35) μM | 3 |  | Non-lipogenic | non-lipogenic | No signal was observed |  |  |  |
| CC(C)(C)N1C(=O)C(NC2CCN(c3ncc(CC(=O)O)cc3Cl)CC2)=C(c2ccccc2)S1(=O)=O [AZ4] | 33.1 | 427 | 103 | ≤ 11.3 | 5.65 | 1.47 (28) | 1.35 (54) μM |  |  |  |  |  |  |  |  |
| O=C1C(Cc2ccccc2)=C(NCCCCc2ccccc2)C(=O)N1Cc1ccccc1 [AZ8] | 47.9 | 1740 | 91.5 | > 11.3 | 341 |  |  |  | low ABCA1 inducers | Non-lipogenic |  |  |  |  |  |
| CN(C)C(=O)c1cnc(N2CC[C@@H](CNC3=C(c4ccccc4)S(=O)(=O)N(C(C)(C)C)C3=O)C2)c(Cl)c1 [AZ5] | 77.6 | 1070 | 60.5 | > 11.3 | 17.2 |  |  |  | low ABCA1 inducers |  |  |  |  |  |  |
| CC(C)N1C(=O)C(NC2CCN(c3ncc(CC(=O)O)cc3Cl)CC2)=C(c2ccccc2)S1(=O)=O [AZ6] | 162 | 1230 | 87.8 | ≤ 11.3 | 11.3 |  |  |  | high ABCA1 inducers | Non-lipogenic |  |  |  |  |  |
| O=S(=O)(c1ccccc1)N(CC(F)(F)F)c1ccc(C(O)(C(F)(F)F)C(F)(F)F)cc1 [T0901317, reference compound] |  |  |  | ≤ 11.3 | 4.11 | 0.784 (17) | 4.41 (33) μM |  |  | Lipogenic |  |  | 100.8 (7.4, n = 4) % |  |  |
| Fc1ccc(-c2c3cccc(C(F)(F)F)c3nn2Cc2ccc(F)cc2Cl)cc1 [LXR-623, reference compound] |  | 2570 | 102 | > 11.3 | 31.5 |  |  |  | low ABCA1 inducers | Non-lipogenic | non-lipogenic |  |  | 95.5 | no trends toward increased TG levels |
| CC(C)N1C(=O)C(NCCCCc2cccc(S(N)(=O)=O)n2)=C(c2ccccc2)S1(=O)=O [AZ3] | 17.4 | 813 | 142 | ≤ 11.3 | 1.49 | 0.897 (20) | 3.42 (38) μM | 4 |  |  |  |  |  |  |  |
